Test results published in patent publication US6465476B1, “Immuno-modulator exhibiting antimicrobial and anti-mycrobacterial activities, method for producing the same and pharmaceutical preparation” (priority 1997, dated 2002).
Where two headings read alike, the source gives them in different places.

Key:
[1] = system: human mononucleator cells (T-lymphocytes); assay: Proliferation of T-lymphocytes in cell culture in vitro (3H-thymidine); assay type: cell-based
Procedure: The influence of the test compound on the proliferation of T-lymphocytes was studied on a model in vitro. To this end human mononucleator cells were preliminarily incubated during three hours in the presence of different concentrations of each test substance. Each test substance was studied over a wide range of its concentrations, that is from […]. As a negative control there was added a physiological 0.9 percent solution of NaCl. The results of the influence of novel compoubds on the intensity of proliferation of human lymphocytes in the cell culture in vitro are represented in Table 3.

pulmonary tuberculosis = assay: Clinical study on patients with pulmonary tuberculosis; assay type: in vivo, human; details: for B-lymphocytes / T-helpers / T-lymphocytes / T-suppressors / Th/Ts: pulmonary tuberculosis patients
Description: The preparation of the present invention was also studied clinically on tuberculous patients. The age of the patients was under 30 years (6 persons) and under 35 years (2 persons).
The clincal forms of pulmonary tuberculosis in the patients tested were as follows:
infiltrative tuberculosis without cavities of decay and bacterioexcretion—2 persons;
infiltrative tuberculosis with decay and bacterioexcretion—4 persons;
disseminated pulmonary tuberculosis—2 people.
The length of preparation intake was 1 to 2 months. The dose was equal to 0.6 g a day.
The control group consisting of 5 persons with infiltrative pulmonary tuberculosis received conventional treatment including isoniazide. The tolerance for the preparation claimed was good. […] There was no change in functional indices of parenchymatous organs (liver, kidneys, pancreas). In 3 persons hospitalized with symptoms of intoxication the improvement of general physical and mental state was noted including normatization of body temperature, abatement of cough, decrease in amount of sputum excretion, improvement of appetite.

[2] = system: Kyp-4 strain of leprosy mycobacteria; assay: Antileprous activity in mice infected by Shepard's procedure; assay type: in vivo, leprosy mycobacteria; male mice of the CBA line
Description: Antileprous activity of isophonum as compared with that of diuciphonum was studied on male mice of the CBA line infected with the laboratory Kyp-4 strain of leprosy mycobacteria taken in an amount of 5000 and introduced intraplantedly by Shepard's procedure. The experiment lasted six months from the 7th of February to the […] 1996. Observed were 5 groups of mice with 15 mice in each group. All the animals were kept under the same conditions of the vivarium on a standard diat.
The first group (controls): during six months of the experiment the mice received 0.5 ml of a starch suspension through a probe five times a week. After six months the animals were killed through a cervical dislocation of backbone, the organs were subjected to a bacterioscopic investigation, no pathologic deviations characteristic of any of the groups were found. The bacteriscopic investigation of the infected site was carried out by grinding the mouse foot in 2 ml of 0.1 percent solution of albumin, making a smear from 0.01 ml of the suspenstion and painting it by Ziel-Nielson's procedure and counting the number of leprosy micobacteria in 60 fields of vision to determine the number of micobacteria per mouse in each group.

[3] = system: antibody-forming cells (AFC) in the spleen; assay: Humoral immunity, localized-in-gel hemolysis, AFC accumulation in spleen of immunized mice; assay type: in vivo, hybrid mice F1 (CBA/C57BL6)
Procedure: The influence on humoral immunity was studied using the method of localized-in-gel hemolysis. […] On the 5th day the number of antibody-forming cells (AFC) in the spleen of the mice was calculated and the immune response stimulation index was determined as the ratio of AFC number in the test group to the AFC number in the control group. The respective data are represented in Table 2.

Tubazide-resistent H37Rv = assay type: in vivo, tuberculosis mycobacteria; mice of the CBA line; details: for Damage index / Life duration / Weight of the lung: Tubazide-resistent H37Rv
agent of leprosy = assay: Example 1, patient X, border-line tuberculoid leprosy; assay type: in vivo, human; parameters: histological index: scale not given here; Leucocytes / T-lymphocytes: unit not given here
Description: The patient X was admitted to a clinic with a diagnosis “border-line tuberculoid leprosy”. They had been considering themself ill for two years. They supposed that they had been infected in Africa where they had worked 8 years ago and used to receive vegetables from lepers. On the skin of the back, on the skin of the lateral abdiminal surfaces, on the left hip and shin, the left temple area of the head there were yellowish-reddish papules with a rust-coloured hue and sized 1.5 times 2 cm to 4 times 6 cm with no sensitivity in ther center. Disorder of sensitivity was noted along the length of peroneal and elbow nerves. The agent of leprosy was neither detected in the scrape from the nasal mucosa nor in the lymph on the bacterioscopic investigation. […] In the surface layers of derma there were multiple infiltrates and in the deeper layers of the skin there were focal and strand infiltrates. The histological index was equal to 1.1. The patient was prescribed a treatment in the form of isophonum to be taken internally 0.2 g each time twice a day. After 3.5 months all the elements (plaques) on the skin completely resolved and were replaced by hyperpigmented spots which after 4 months completely gained the colour of a normal skin. […] The patient was not hospitalyzed and received home treatment without interrupting their work. […] The histological index equaled 0. When histological investigation was repeated after 7 months with the purpose of transfering the patient under dispensary observation, the agent of leprosy was not detected either, in the surface layer of the derma were noted some small infiltrates out of lymphocytes with epithelioid cells in the form of accumulations.
In deeper layers of the skin there were small infiltrates around the blood vessels. It was decided to prolong the treatment of the patient for 6 months by administering isophonum internally in combination with diuciphonum.

[4] = after three months, 0.6 g a day
[5] = tuberculous patients, 0.6 g a day, 1 to 2 months

With `Cc1[nH]c(=O)[nH]c(=O)c1S(=O)(=O)NNC(=O)c1ccncc1.O` [Isophonum, N-(6-methyl-2,4-dioxo-1,2,3,4-tetrahydro-5-pyrimidinsulfon)-N′-isonicotinoylhydrazide hydrate] the “Intensity of involvement of 3H-thymidine in DNA of cultivated cells, PHA-activated” value (from here on “Intensity of involvement … PHA-activated”) ([1]; 0.01 μg/ml) was 19995 impulse per minute, the “Intensity of involvement of 3H-thymidine in DNA of cultivated cells, Spontaneous” value (shortened to “Intensity of involvement … Spontaneous”) ([1]; 0.01 μg/ml) was 901 impulse per minute and the “Intensity of involvement … PHA-activated” value ([1]; 0.03 μg/ml) was 24736 impulse per minute. For the same compound, the “Intensity of involvement … Spontaneous” value ([1]; 0.03 μg/ml) was 1152 impulse per minute, the “Intensity of involvement … PHA-activated” value ([1]; 0.1 μg/ml) was 37890 impulse per minute and the “Intensity of involvement … Spontaneous” value ([1]; 0.1 μg/ml) was 1818 impulse per minute. The “Intensity of involvement … PHA-activated” value ([1]; 1 μg/ml) was 25455 impulse per minute, the “Intensity of involvement … Spontaneous” value ([1]; 1 μg/ml) was 1272 impulse per minute and the “Intensity of involvement … PHA-activated” value ([1]; 5 μg/ml) was 20120 impulse per minute. For the same compound, the “Intensity of involvement … Spontaneous” value ([1]; 5 μg/ml) was 871 impulse per minute, the optimal concentration ([1]; proliferation of T-cells) was 0.1 µg/mL and the mitogenetic activity ([1]; spontaneous proliferation) was “possesses the proper mitogenetic activitiy of its own”. It also gave a B-lymphocytes (pulmonary tuberculosis; after one month, 0.6 g a day) of 12.0 ± 0.8, a T-helpers (pulmonary tuberculosis; after one month, 0.6 g a day) of 37.4 ± 0.3 and a T-lymphocytes (pulmonary tuberculosis; after one month, 0.6 g a day) of 48.5 ± 1.0. For the same compound, the T-suppressors (pulmonary tuberculosis; after one month, 0.6 g a day) was 20.0 ± 0.6, the Th/Ts (pulmonary tuberculosis; after one month, 0.6 g a day) was 1.85 ± 0.2 and the B-lymphocytes (pulmonary tuberculosis; [4]) was 11.0 ± 0.6. The T-helpers (pulmonary tuberculosis; [4]) was 55.5 ± 2.0, the T-lymphocytes (pulmonary tuberculosis; [4]) was 54.8 ± 0.7 and the Th/Ts (pulmonary tuberculosis; [4]) was 2.75 ± 0.04. For the same compound, the B-lymphocytes (pulmonary tuberculosis; before treatment) was 9.0 ± 0.3, the T-helpers (pulmonary tuberculosis; before treatment) was 28.6 ± 0.2 and the T-lymphocytes (pulmonary tuberculosis; before treatment) was 42.2 ± 0.1. For the same compound, the T-suppressors (pulmonary tuberculosis; before treatment) was 28.0 ± 1.2, the Th/Ts (pulmonary tuberculosis; before treatment) was 1.0 ± 0.02 and the signs of toxication (pulmonary tuberculosis; [5]) was “No one of the patients exhibeted clinical, hematological signs of toxicaction”. For the same compound, the “tolerance for the preparation” value (pulmonary tuberculosis; [5]) was “good”, the “activity against the leprosy mycobacteria” value ([2]; 2.5 mg/kg) was “bactericide activity” and the “Percentage of infected animals” value ([2]; after six months, isophonum dose 2.5 mg/kg) was 0%. The “AFC-number in the spleen” value ([3]; 500 μg per mouse per os in starch suspension, 5th day after immunization) was 2800 ± 200, the “Immune response stimulation index” value ([3]; 500 μg per mouse per os, ratio of AFC test group to control group) was 5.6 and the Damage index (Tubazide-resistent H37Rv; 100 μg per mouse) was 1.91 ± 0.18. For the same compound, the Life duration (Tubazide-resistent H37Rv; 100 μg per mouse) was 35.2 ± 3.4, the “Weight of the lung” value (Tubazide-resistent H37Rv; 100 μg per mouse) was 493.4 ± 65.1 and the Damage index (Tubazide-resistent H37Rv; 200 μg per mouse) was 1.72 ± 0.24. The Life duration (Tubazide-resistent H37Rv; 200 μg per mouse) was 37.1 ± 6.2, the “Weight of the lung” value (Tubazide-resistent H37Rv; 200 μg per mouse) was 478.2 ± 60.8 and the antituberculous action (Tubazide-resistent H37Rv; mycobacteria resistent to tubazide and streptomycin) was “pronounced antituberculous action”. The “time after which all the elements (plaques) on the skin completely resolved” value (agent of leprosy; 0.2 g twice a day) was 3.5 months, the histological index (agent of leprosy; 3 months later, 0.2 g twice a day) was 0 and the histological index (agent of leprosy; before treatment) was 1.1. For the same compound, the “B-lymphocytes, %” value (agent of leprosy; day 0 (before treatment)) was 12%, the Leucocytes (agent of leprosy; day 0 (before treatment)) was 6.1 and the “Lymphocytes, %” value (agent of leprosy; day 0 (before treatment)) was 18%. The “T-helpers, %” value (agent of leprosy; day 0 (before treatment)) was 50%, the T-lymphocytes (agent of leprosy; day 0 (before treatment)) was 57 and the T-suppressors (agent of leprosy; day 0 (before treatment)) was 4. For the same compound, the “B-lymphocytes, %” value (agent of leprosy; day 180, 0.2 g twice a day) was 17%, the Leucocytes (agent of leprosy; day 180, 0.2 g twice a day) was 6.8 and the “Lymphocytes, %” value (agent of leprosy; day 180, 0.2 g twice a day) was 30%. For the same compound, the “T-helpers, %” value (agent of leprosy; day 180, 0.2 g twice a day) was 63%, the T-lymphocytes (agent of leprosy; day 180, 0.2 g twice a day) was 80 and the T-suppressors (agent of leprosy; day 180, 0.2 g twice a day) was 27. It also gave a Phagocytosis (agent of leprosy; first column (no day head; presumably day 0)) of 30 and a Phagocytosis (agent of leprosy; second column (no day head; presumably day 180)) of 5.
